Reference: paper PMC5601625, “Defining a therapeutic window for kinase inhibitors in leukemia to avoid neutropenia” (Oncotarget, 2017)
“Also recorded” adds a separate entry of the source. Where two headings read alike, the source gives them in different places. One block for each compound: values may come before it.

Key:
[1] = cited from earlier work
[2] = system: JURKAT; experiment: Cell Titer Glo cell viability assay, 48 h; type: cell-based, human; conditions: 48 h, mean of 2 independent experiments, 0 = less than 10 nM, cell line not given, read-out: IC50 of inhibitors on cell lines, m (mean)
Protocol: (§1) The activity of the kinase inhibitor collection against a panel of human leukemia cell lines was determined in cell viability assays run over 48 h using the Cell Titer Glo reagent.
(§2) Figure 1 Effects of kinase inhibition on the proliferation of leukemia cells A. Human leukemia cell lines were treated with duplicate serial dilutions of kinase inhibitors and the effect on cell viability was determined by Cell Titer Glo assay after 48 hours. […] HL-60 cells were treated with serial dilutions of mTor/PI3K B. and MEK C. inhibitors and the effect on cell viability was determined after 48 hours. Data shown is the mean ± SEM of 3 independent experiments.
(§3) Leukemia and lymphoma cell lines were grown in RPMI containing 10% FCS. […] Cell lines are routinely tested for mycoplasma and genotyped by short tandem repeating (STR) profiling to confirm identity.
(§4) Compounds were obtained from SynMedChem and dissolved at […] in DMSO. Serial 2-fold dilutions of each compound were prepared in DMSO using a liquid handling robot (Janus, Perkin Elmer). Each dilution (100nL) was transferred to duplicate tissue culture plates containing 50 μL of media containing 5 × 10^3 cells using a 384 well pin tool. Cells were incubated for 48 h and cell viability was determined using Cell Titer Glow reagents as described by the manufacturer (Promega). Data was acquired using a luminescent plate reader (Envision, Perkin Elmer) and analysed using Activity Base (IDBS, Guilford, UK) and visualised using Spotfire (TIBCO, Palo Alto, CA) as described previously. Each cell line was assayed in independent experiments on at least two occasions. […] Serial 2-fold dilutions of each compound were prepared in media containing 0.2% DMSO and 50 μl of each dilution was added to 10^4 cells in 50 μl of media. Cells were incubated for 48 h and cell viability was determined using Cell Titer Glow assay as described above.

[3] = system: HL-60; experiment: Cell Titer Glo cell viability assay, 48 h; type: cell-based, human; conditions: 48 h, mean of 2 independent experiments, 0 = less than 10 nM, cell line not given, read-out: IC50 of inhibitors on cell lines, m (mean)
Protocol: as §1, §2, §3, §4

[4] = system: EOL-1; experiment: Cell Titer Glo cell viability assay, 48 h; type: cell-based, human; conditions: 48 h, mean of 2 independent experiments, 0 = less than 10 nM, cell line not given, read-out: IC50 of inhibitors on cell lines, m (mean)
Protocol: as §1, §2, §3, §4

[5] = system: U937; experiment: Cell Titer Glo cell viability assay, 48 h; type: cell-based, human; conditions: 48 h, mean of 2 independent experiments, 0 = less than 10 nM, cell line not given, read-out: IC50 of inhibitors on cell lines, m (mean)
Protocol: as §1, §2, §3, §4

[6] = system: MV4;11; experiment: Cell Titer Glo cell viability assay, 48 h; type: cell-based, human; conditions: 48 h, mean of 2 independent experiments, 0 = less than 10 nM, cell line not given, read-out: IC50 of inhibitors on cell lines, m (mean)
Protocol: as §1, §2, §3, §4

[7] = system: KU-812; experiment: Cell Titer Glo cell viability assay, 48 h; type: cell-based, human; conditions: 48 h, mean of 2 independent experiments, 0 = less than 10 nM, cell line not given, read-out: IC50 of inhibitors on cell lines, m (mean)
Protocol: as §1, §2, §3, §4

[8] = system: K562; experiment: Cell Titer Glo cell viability assay, 48 h; type: cell-based, human; conditions: 48 h, mean of 2 independent experiments, 0 = less than 10 nM, cell line not given, read-out: IC50 of inhibitors on cell lines, m (mean)
Protocol: as §1, §2, §3, §4

[9] = system: HEL.92.1.7; experiment: Cell Titer Glo cell viability assay, 48 h; type: cell-based, human; conditions: 48 h, mean of 2 independent experiments, 0 = less than 10 nM, cell line not given, read-out: IC50 of inhibitors on cell lines, m (mean)
Protocol: as §1, §2, §3, §4

[10] = system: MOLT4; experiment: Cell Titer Glo cell viability assay, 48 h; type: cell-based, human; conditions: 48 h, mean of 2 independent experiments, 0 = less than 10 nM, cell line not given, read-out: IC50 of inhibitors on cell lines, m (mean)
Protocol: as §1, §2, §3, §4

[11] = system: THP-1; experiment: Cell Titer Glo cell viability assay, 48 h; type: cell-based, human; conditions: 48 h, mean of 2 independent experiments, 0 = less than 10 nM, cell line not given, read-out: IC50 of inhibitors on cell lines, m (mean)
Protocol: as §1, §2, §3, §4

[12] = system: OCI-AML3; experiment: Cell Titer Glo cell viability assay, 48 h; type: cell-based, human; conditions: 48 h, mean of 2 independent experiments, 0 = less than 10 nM, cell line not given, read-out: IC50 of inhibitors on cell lines, m (mean)
Protocol: as §1, §2, §3, §4

[13] = system: MEG-01; experiment: Cell Titer Glo cell viability assay, 48 h; type: cell-based, human; conditions: 48 h, mean of 2 independent experiments, 0 = less than 10 nM, cell line not given, read-out: IC50 of inhibitors on cell lines, m (mean)
Protocol: as §1, §2, §3, §4

[14] = system: primary murine bone-marrow neutrophils; experiment: Live cell imaging viability of primary bone-marrow neutrophils; conditions: for effect on mouse neutrophil viability (words): G-CSF- or GM-CSF-primed, inhibitors at 1 μM, over 24 hours; for effect of chemotherapeutics on neutrophil viability: GM-CSF-primed, dose-dependent, Figure 5D
Excerpt: Using a high-throughput live cell imaging approach reported previously [15], we examined the effect of the kinase inhibitors on the viability of bone marrow neutrophils to determine their potential to cause neutropenia (Figure 2). Because G-CSF and GM-CSF are dominant regulators of granulopoiesis and neutrophil survival, and are commonly used in a clinical setting to mobilize hematopoietic stem cells into the blood and increase neutrophil production [27–31], we treated cells with these cytokines immediately prior to drug exposure. The addition of either cytokine prevents constitutive neutrophil apoptosis thereby increasing the window for detection of changes in viability induced by drug treatments.
For all above, data represent mean ± SEM from three independent samples.
Mouse bone marrow neutrophils were prepared as described [15]. Neutrophils were resuspended in phenol red-free DMEM/10% FBS for imaging studies. The purity of neutrophil preparations was routinely 96% ± 4% (Mean ± SD, n = 50) as assessed by cytology following May-Grünwald/Giemsa staining.
Kinase inhibitors were purchased from SYN kinase (Melbourne, Australia) and were used at 1 μM, unless otherwise specified, with dilutions performed in assay buffer containing 0.1% DMSO.
Viability was monitored using 2 μg/mL PI (Sigma). Images were captured every 30-60 min by the Zeiss Axiovert 200M Microscope at 37 °C/10% CO2. Quantitative analysis was performed using a custom-scripted MetaMorph (Molecular Devices) journal suite incorporating the count nuclei function, reconstruction & subtraction functions and Integrated Morphometry Analysis to select and analyze cells of interest.

[15] = system: human peripheral blood neutrophils; experiment: Human neutrophil viability by propidium iodide exclusion, flow cytometry; conditions: for sensitivity of human neutrophils: G-CSF or GM-CSF primed 1 h, treated 18 h, dose range; for sensitivity of human neutrophils at 1μM: 18 h
Protocol: Figure 3 Assessment of human neutrophil viability in response to kinase inhibitor treatment Human peripheral blood neutrophils from three healthy donors were primed with G-CSF or GM-CSF for 1 hour before addition of selected kinase inhibitors (as shown) or DMSO (control) at concentrations as indicated. Neutrophil viability was assessed after 18 hours of treatment, by propidium iodide exclusion measured by flow cytometry. Mean ± SEM shown.
Donors were 18 years of age or older and had not taken anti-inflammatory medications during the 2 weeks before donating. […] Human neutrophils were then isolated on a three-layer Percoll gradient as described for mouse bone marrow neutrophils as described. […] Neutrophils were resuspended in DMEM/10%FBS, and primed with 10 ng/mL recombinant human G-CSF (Amgen) or 10 ng/mL recombinant human GM-CSF (Leukine, Sargramostim) for 1 h. Compounds or DMSO carrier were added for […]. Viability was assessed by staining neutrophils with propidium iodide and analyzing on a BD Fortessa.

[16] = system: panel of human leukemia cell lines; experiment: Cell Titer Glo cell viability assay, 48 h, statements across the whole panel; conditions: for cytotoxicity to leukemia cell lines: 12 leukemia cell lines
Protocol: as §1
Figure 1 Effects of kinase inhibition on the proliferation of leukemia cells A. Human leukemia cell lines were treated with duplicate serial dilutions of kinase inhibitors and the effect on cell viability was determined by Cell Titer Glo assay after 48 hours. Data shown represents the mean IC50 of each condition from 2 independent experiments. HL-60 cells were treated with serial dilutions of mTor/PI3K B. and MEK C. inhibitors and the effect on cell viability was determined after 48 hours. Data shown is the mean ± SEM of 3 independent experiments.
as §3, §4

[17] = system: primary murine myeloid HPCs (lin-c-Kit+Sca-1- cells); experiment: Live cell imaging viability of hematopoietic myeloid progenitor cells
Excerpt: (C & D) Dose-dependent effects of common chemotherapeutics on GM-CSF-primed primary murine myeloid HPCs C. or GM-CSF-primed primary murine bone-marrow neutrophils D. as assessed by live cell imaging analysis (concentrations as marked). E. Comparison of G-CSF (red/orange) or GM-CSF (blue) priming of myeloid HPCs before treatment with chemotherapeutics as assessed by live cell imaging (concentrations as marked). […] Mean ± SEM with n = 3 independent samples. * p < 0.05.
For purification of myeloid progenitor cells, bone marrow cells were collected in DMEM/10% FCS. After red cell lysis, cells were stained with biotin-conjugated antibodies against Ter119, Gr-1, Mac-1, B220, CD4, CD8 and IL-7Rα and incubated with streptavidin-microbeads (Miltenyi Biotech). Lineage positive cells were depleted by magnetic separation using MACS LS columns and QuadroMACS^TM separator magnets (Miltenyi Biotech). Hematopoietic myeloid progenitor cells that were propidium iodide (PI) negative, lineage-negative, Sca-1 negative and c-Kit positive, were sorted and collected by flow cytometry on a FACSAria or Diva (BD Biosciences). For imaging studies, cells were resuspended in StemPro-34 SFM (Invitrogen). Cells were cultured in 10 ng/mL human G-CSF (Neupogen, Amgen), 10 ng/mL recombinant mouse GM-CSF or 10 ng/mL recombinant human GM-CSF.
The MetaMorph script is available upon request.

[18] = Homo sapiens, read-out: IC50 across most of the cell lines examined

IC50 ([2]; Homo sapiens): 160 nM | IC50 ([3]; Homo sapiens): 100 nM | IC50 ([5]; Homo sapiens, U-937): 70 nM | IC50 ([6]; Homo sapiens): 150 nM | IC50 ([8]; Homo sapiens): 720 nM | IC50 ([10]; Homo sapiens, MOLT-4): 290 nM | IC50 ([11]; Homo sapiens): 140 nM | IC50 ([12]; Homo sapiens, OCI-AML-3): 190 nM
SMILES: CC(C)(C)c1cnc(CSc2cnc(NC(=O)C3CCNCC3)s2)o1 [SNS-032]
dose-limiting side-effect in patients ([1]; patients with chronic lymphocytic leukemia and multiple myeloma): neutropenia as the dose-limiting side-effect | IC50 ([4]; Homo sapiens, EOL1): 90 nM | IC50 ([7]; Homo sapiens, KU812): 610 nM | IC50 ([9]; Homo sapiens): 1330 nM | IC50 ([13]; Homo sapiens): 580 nM | effect on mouse neutrophil viability (words) [14]: induced rapid cell death; also recorded: significant impact on neutrophil viability | EC50 ([14]; Mus musculus, Neutrophil, 12 h, read-out: EC50 neutrophil viability, Bak-/- Bax deficient): > 1000 nM | EC50 ([14]; Mus musculus, Neutrophil, 12 h, read-out: EC50 neutrophil viability, Mcl-1+/-): 80 nM | EC50 ([14]; Mus musculus, Neutrophil, 12 h, read-out: EC50 neutrophil viability, wild-type): 182 nM | EC50 ([14]; Mus musculus, Neutrophil, read-out: EC50 neutrophil viability, G-CSF primed): 194 nM | EC50 ([14]; Mus musculus, Neutrophil, read-out: EC50 neutrophil viability, GM-CSF primed): 218 nM | sensitivity of human neutrophils [15]: sensitive

IC50 [16, 18]: ≤ 10 nM
SMILES: NC(=O)Nc1cc(-c2cccc(F)c2)sc1C(=O)N[C@H]1CCCNC1 [AZD7762]
cytotoxicity to leukemia cell lines [16]: potently cytotoxic to all lines examined | sensitivity of human neutrophils at 1μM [15]: not sensitive | sensitivity of human neutrophils [15]: sensitive

IC50 [16, 18]: ≤ 10 nM
SMILES: Cn1c(=O)n(-c2ccc(C(C)(C)C#N)cc2)c2c3cc(-c4cnc5ccccc5c4)ccc3ncc21 [BEZ-235]
cytotoxicity to leukemia cell lines [16]: potently cytotoxic to all lines examined | effect on mouse neutrophil viability (words) [14]: minimal impact | sensitivity of human neutrophils at 1μM [15]: not sensitive | sensitivity of human neutrophils [15]: sensitive

SMILES: N.N.O=C([O-])C1(C(=O)[O-])CCC1.[Pt+2] [carboplatin]
neutropenia in the clinic [1]: induce neutropenia in the clinic | effect of chemotherapeutics on neutrophil viability [14]: no effects | effect of chemotherapeutics on HPC viability ([17]; GM-CSF-primed, dose-dependent, Figure 5C): no effects

SMILES: Cc1ccc([N+](=O)[O-])cc1S(=O)(=O)N(C)/N=C/c1cnc2ccc(Br)cn12 [PIK-75]
IC50 [2]: 90 nM | IC50 [3]: 60 nM | IC50 [4]: 40 nM | IC50 [5]: 60 nM | IC50 [6]: 10 nM | IC50 [7]: 140 nM | IC50 [8]: 330 nM | IC50 [9]: 80 nM | IC50 [10]: 130 nM | IC50 [11]: 100 nM | IC50 [12]: 100 nM | IC50 [13]: 290 nM | cytotoxicity to leukemia cell lines [16]: potently cytotoxic to all lines examined | IC50 ([16]; read-out: IC50 across most of the cell lines examined, Cell Titer Glo, most of 12 leukemia lines): ≤ 10 nM | EC50 ([14]; read-out: EC50 neutrophil viability, Mcl-1+/-, Mcl-1+/- neutrophils, 12 hour time-point): 57 nM | EC50 ([14]; read-out: EC50 neutrophil viability, wild-type, WT neutrophils, 12 hour time-point): 228 nM | effect of kinase inhibitors on HPC viability ([17]; G-CSF- or GM-CSF-primed, 1 μM, over 24 hours): active against both G-CSF- and GM-CSF-treated HPC | sensitivity of human neutrophils [15]: sensitive

SMILES: CC[C@@H]1C(=O)N(C)c2cnc(Nc3ccc(C(=O)NC4CCN(C)CC4)cc3OC)nc2N1C1CCCC1 [(R)-BI-2536]
cytotoxicity to leukemia cell lines [16]: potently cytotoxic to all lines examined | IC50 ([16]; Homo sapiens, read-out: IC50 across all cell lines examined): < 300 nM | IC50 [16, 18]: ≤ 10 nM | sensitivity of human neutrophils at 1μM [15]: not sensitive | sensitivity of human neutrophils [15]: sensitive

SMILES: CC(=O)O[C@@]12CO[C@@H]1C[C@H](O)[C@@]1(C)C(=O)[C@H](O)C3=C(C)[C@@H](OC(=O)[C@H](O)[C@@H](NC(=O)OC(C)(C)C)c4ccccc4)C[C@@](O)([C@@H](OC(=O)c4ccccc4)[C@H]21)C3(C)C [docetaxel]
neutropenia in the clinic [1]: induce neutropenia in the clinic | effect of chemotherapeutics on neutrophil viability [14]: no effects | effect of chemotherapeutics on HPC viability [17]: no effects
